Reference: patent US8623898B2, “Glycine transporter inhibiting substances” (Taisho Pharmaceutical Co., Ltd., priority 2009, dated 2014)
Like-named read-outs stand apart in the source and are kept apart here.

Legend:
[1] = Membrane permeability experiment (PAMPA Evolution); format: in vitro ADME; conditions: artificial lipid GIT-0, pH 4.0, 5.0, 6.2 and 7.4, marker metoprolol
Protocol: In the development of pharmaceuticals, membrane permeability is an important factor to consider from the viewpoint of relationship with the bodily absorption of a medicament to be administered orally. Compounds having high membrane permeability are expected to feature satisfactory absorption by the intestinal tract (see Pharmaceutical Research (2002) Vol. 19, No. 7, 921-925.)
A membrane permeability test was conducted using PAMPA Evolution™ (pION INC.) in accordance with a modified version of the recommended protocol of pION INC. To be more specific, solutions of an assay compound (i.e., a DMSO solution of the compound as diluted by being added to system solutions that had been adjusted to prescribed pHs (4.0, 5.0, 6.2, and 7.4)) were prepared and added to the lower compartment (donor) of a sandwich plate having a lipid bilayer membrane formed of an artificial lipid (GIT-0). An acceptor sink buffer was added to the upper compartment (acceptor) and after the lapse of a prescribed period, the cumulative permeation of the compound was measured by performing UV spectroscopy on the solutions in the donor and acceptor, and the membrane permeability coefficient Pe (×10^−6 cm/sec) was calculated to assay the membrane permeability of the compound.

[2] = molecular target: T1, human type 1 glycine transporter (GlyT1) (Homo sapiens, UniProt P48067); assay: Glycine uptake inhibition experiment ([3H] glycine uptake in T98G cells); format: cell-based; conditions: [3H] glycine 250 nM, read-out: IC50 (glycine uptake inhibiting activity)
T1 construct: Used in the experiment were T98G cells (glioma cells) developing a human type 1 glycine transporter (GlyT1); endogenous in cells; host or cells: T98G human glioma cells
T1 sequence (P48067 1-706): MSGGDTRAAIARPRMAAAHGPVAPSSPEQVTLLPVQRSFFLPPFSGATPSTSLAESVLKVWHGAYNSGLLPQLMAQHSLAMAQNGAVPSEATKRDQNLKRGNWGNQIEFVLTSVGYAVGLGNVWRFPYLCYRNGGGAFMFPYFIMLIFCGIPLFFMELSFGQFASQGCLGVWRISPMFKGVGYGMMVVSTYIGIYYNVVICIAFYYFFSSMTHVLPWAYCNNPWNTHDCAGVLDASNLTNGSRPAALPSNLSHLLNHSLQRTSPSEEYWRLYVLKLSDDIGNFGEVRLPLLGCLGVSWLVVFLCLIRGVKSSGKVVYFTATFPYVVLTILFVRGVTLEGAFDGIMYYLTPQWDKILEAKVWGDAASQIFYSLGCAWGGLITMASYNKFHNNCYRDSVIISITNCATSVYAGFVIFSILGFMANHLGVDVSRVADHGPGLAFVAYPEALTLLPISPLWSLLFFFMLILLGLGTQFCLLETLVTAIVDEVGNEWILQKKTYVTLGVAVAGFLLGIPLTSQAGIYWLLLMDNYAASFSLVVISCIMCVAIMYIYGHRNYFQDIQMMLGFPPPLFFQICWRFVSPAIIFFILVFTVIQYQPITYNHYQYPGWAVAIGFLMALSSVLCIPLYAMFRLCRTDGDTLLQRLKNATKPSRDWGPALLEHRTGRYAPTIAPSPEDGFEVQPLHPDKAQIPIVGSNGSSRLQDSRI
Protocol: A glycine uptake inhibition experiment was conducted in accordance with the method described in Neuron, 8, 927-935, 1992. Used in the experiment were T98G cells (glioma cells) developing a human type 1 glycine transporter (GlyT1). The T98G cells were seeded in a 96-well plate at a density of 2.0×10^4 cells per well and cultured overnight in a CO2 incubator. The test substance was first dissolved in a 100% DMSO solution and then dissolved in a 10 mM HEPES buffer solution (pH 7.4) supplemented with 150 mM sodium chloride, 1 mM calcium chloride, 5 mM potassium chloride, 1 mM magnesium chloride, 10 mM glucose, and 0.2% bovine serum albumin. After removing the cell culture medium, the test substance was subjected to a 10-min pretreatment. Thereafter, the test substance and [^3H] glycine (final concentration: 250 nM) were added to the cells and reaction was performed at room temperature for 15 minutes. After the end of the reaction, the extracellular fluid was aspirated with a manifold to remove the excess marker glycine present outside of the cells; thereafter, the cells were lysed with an aqueous solution of 0.5 M sodium hydroxide. The glycine content in the cells was determined by measuring the radioactivity in the cell lysate with a liquid scintillation counter. With the amount of glycine uptake in the presence of 10 μM ALX5407 being referred to as the nonspecific uptake, the amount of specific uptake was calculated by subtracting the amount of nonspecific uptake from the total amount of uptake in the absence of 10 μM ALX5407. In addition, glycine uptake inhibiting activity (IC50) was calculated from an inhibition curve for the concentration of the test substance ranging from 10^−9 to 10^−5 M.

P-gp (Human MDR1) = molecular target: T2, P-gp (Human MDR1) (Homo sapiens, UniProt P08183); assay: Test for recognizability of P-gp substrate (LLC-GA5-COL 300 cells); format: in vitro ADME; conditions: 10 μM, criteria of Nature Reviews Drug Discovery (2010) 9, 215-236
T2 construct: expressed in transfected cells; host or cells: LLC-GA5-COL 300 (LLC-PK1 pig kidney epithelial cells expressing human MDR1)
T2 sequence (P08183 whole entry): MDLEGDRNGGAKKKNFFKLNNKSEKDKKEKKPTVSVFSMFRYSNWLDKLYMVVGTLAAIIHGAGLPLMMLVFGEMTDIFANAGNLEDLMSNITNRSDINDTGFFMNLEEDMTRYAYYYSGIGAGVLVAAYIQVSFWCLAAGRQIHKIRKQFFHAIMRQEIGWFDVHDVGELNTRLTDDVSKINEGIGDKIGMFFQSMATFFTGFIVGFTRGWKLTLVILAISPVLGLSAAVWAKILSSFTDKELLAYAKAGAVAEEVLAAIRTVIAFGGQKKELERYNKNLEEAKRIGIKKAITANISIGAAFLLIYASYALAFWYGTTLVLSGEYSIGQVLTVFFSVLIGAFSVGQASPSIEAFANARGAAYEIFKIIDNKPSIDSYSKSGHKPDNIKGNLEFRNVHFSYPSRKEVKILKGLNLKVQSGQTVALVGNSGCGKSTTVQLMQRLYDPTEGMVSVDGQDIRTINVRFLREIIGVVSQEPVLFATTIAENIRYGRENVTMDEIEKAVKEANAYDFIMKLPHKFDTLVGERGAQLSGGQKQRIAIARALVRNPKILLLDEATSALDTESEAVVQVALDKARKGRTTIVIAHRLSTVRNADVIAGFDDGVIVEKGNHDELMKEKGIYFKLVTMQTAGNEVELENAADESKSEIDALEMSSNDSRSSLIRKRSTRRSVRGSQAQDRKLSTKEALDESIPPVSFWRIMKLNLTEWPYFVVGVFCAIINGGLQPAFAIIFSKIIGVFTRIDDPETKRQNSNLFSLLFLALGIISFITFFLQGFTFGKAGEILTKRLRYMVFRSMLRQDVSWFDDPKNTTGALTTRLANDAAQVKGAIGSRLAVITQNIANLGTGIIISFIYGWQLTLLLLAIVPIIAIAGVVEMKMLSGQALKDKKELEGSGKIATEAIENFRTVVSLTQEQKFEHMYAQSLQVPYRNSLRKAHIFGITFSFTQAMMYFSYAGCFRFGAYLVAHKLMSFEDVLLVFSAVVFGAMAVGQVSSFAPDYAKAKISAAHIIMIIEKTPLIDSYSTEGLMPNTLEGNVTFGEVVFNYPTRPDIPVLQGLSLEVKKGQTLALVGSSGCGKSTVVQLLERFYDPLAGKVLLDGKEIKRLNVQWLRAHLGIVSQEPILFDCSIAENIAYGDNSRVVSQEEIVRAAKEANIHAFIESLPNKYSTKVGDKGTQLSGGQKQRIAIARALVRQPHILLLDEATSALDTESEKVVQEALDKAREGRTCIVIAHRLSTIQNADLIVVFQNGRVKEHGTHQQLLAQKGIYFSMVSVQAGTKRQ
Description: In order that drugs acting on the central nervous system will develop their efficacy, their passage from the blood to the brain is generally important. While various efflux transporters are present at the blood-brain barrier to control this passage of drugs, P-glylcoprotein (P-gp) is a typical example and inhibits the passage to the brain of any drugs that serve as the substrate for P-gp. Therefore, in the development of pharmaceuticals, nonrecognizability of a candidate drug as the substrate for P-gp is the key to its passage to the brain.
A test for recognizability of P-gp substrate was performed in accordance with a modified version of the methods described in J. Pharmacol. Exp. Ther. (1992) Vol. 263, No. 2, 840-845 and J. Biol. Chem. (1992) Vol. 267, No. 34, 24248-24252. […] A solution of an assay compound (a DMSO solution of the compound as diluted with HBSS and adjusted to a final concentration of 10 μM) was added to the donor side of the LLC-GA5-COL 300 cells and a prescribed amount of HBSS was collected from the acceptor side at given time intervals and the concentration of the assay compound in the collected sample was measured by LC-MS/MS. […]

## Cn1cnc(C(=O)N(Cc2cccc(C(F)(F)F)c2)C2CCOCC2)c1 [Compound 16]
[1]
  membrane permeability coefficient Pe compared with metoprolol: higher Pe values than the high permeability marker compound metoprolol
[2]; 15 min, room temperature
  IC50: 0.0097 µM
[2]
  IC50: < 0.1 µM

## Cn1cnc(C(=O)N(Cc2ccc(F)c(Cl)c2)C2CCOCC2)c1 [Compound 24]
[1]
  membrane permeability coefficient Pe compared with metoprolol: higher Pe values than the high permeability marker compound metoprolol
[2]; 15 min, room temperature
  IC50: 0.0059 µM
[2]
  IC50: < 0.1 µM

## O=C(c1c[nH]cn1)N(Cc1cccc(Cl)c1)C1CCOCC1 [Compound 26]
[1]
  membrane permeability coefficient Pe compared with metoprolol: higher Pe values than the high permeability marker compound metoprolol
[2]
  IC50: ≥ 1 µM

## Cn1cnc(C(=O)N(Cc2ccc(F)c(Cl)c2)C2CCOCC2)n1 [Compound 34]
[1]
  membrane permeability coefficient Pe compared with metoprolol: higher Pe values than the high permeability marker compound metoprolol
[2]
  IC50: < 0.1 µM

## Cn1cnc(C(=O)N(Cc2ccc(F)c(C(F)(F)F)c2)C2CCOCC2)n1 [Compound 35]
[1]
  membrane permeability coefficient Pe compared with metoprolol: higher Pe values than the high permeability marker compound metoprolol
[2]; 15 min, room temperature
  IC50: 0.0403 µM
[2]
  IC50: < 0.1 µM

## Cn1cnc(C(=O)N(Cc2ccc(F)c(OC(F)(F)F)c2)C2CCOCC2)n1 [Compound 49]
P-gp (Human MDR1)
  recognizability as P-gp substrate (efflux ratio basal→apical / apical→basal): not recognizable as the substrate for P-gp
[2]; 15 min, room temperature
  IC50: 0.0074 µM
[2]
  IC50: < 0.1 µM

## Cn1cnc(C(=O)N(Cc2cccc(-c3ccccc3)c2)C2CCOCC2)n1 [Compound 55]
[1]
  membrane permeability coefficient Pe compared with metoprolol: higher Pe values than the high permeability marker compound metoprolol
[2]; 15 min, room temperature
  IC50: 0.0287 µM
[2]
  IC50: < 0.1 µM

## Cn1cnc(C(=O)N(Cc2ccc(F)c(-c3ccccc3)c2)C2CCOCC2)n1 [Compound 59]
[1]
  membrane permeability coefficient Pe compared with metoprolol: higher Pe values than the high permeability marker compound metoprolol
[2]; 15 min, room temperature
  IC50: 0.0126 µM
[2]
  IC50: < 0.1 µM

## Cn1cnc(C(=O)N(Cc2ccc(F)c(-c3ccc(Cl)cc3)c2)C2CCOCC2)n1 [Compound 60]
[1]
  membrane permeability coefficient Pe compared with metoprolol: higher Pe values than the high permeability marker compound metoprolol
[2]; 15 min, room temperature
  IC50: 0.0306 µM
[2]
  IC50: < 0.1 µM

## Cn1cnc(C(=O)N(Cc2ccc(F)c(-c3cccc(Cl)c3)c2)C2CCOCC2)n1 [Compound 61]
[1]
  membrane permeability coefficient Pe compared with metoprolol: higher Pe values than the high permeability marker compound metoprolol
[2]; 15 min, room temperature
  IC50: 0.0159 µM
[2]
  IC50: < 0.1 µM

## Cn1cnc(C(=O)N(CCc2cccc(OC(F)(F)F)c2)C2CCOCC2)c1 [Compound 70]
[1]
  membrane permeability coefficient Pe compared with metoprolol: higher Pe values than the high permeability marker compound metoprolol
[2]; 15 min, room temperature
  IC50: 0.0141 µM
[2]
  IC50: < 0.1 µM

## Cn1cnc(C(=O)N(Cc2ccc(F)c(-c3ccc(F)cc3)c2)C2CCOCC2)n1 [Compound 79]
[1]
  membrane permeability coefficient Pe compared with metoprolol: higher Pe values than the high permeability marker compound metoprolol
[2]; 15 min, room temperature
  IC50: 0.032 µM
[2]
  IC50: < 0.1 µM

## Cn1cnc(C(=O)N(Cc2ccc(F)c(-c3ccc(F)c(Cl)c3)c2)C2CCOCC2)n1 [Compound 86]
[1]
  membrane permeability coefficient Pe compared with metoprolol: higher Pe values than the high permeability marker compound metoprolol
[2]; 15 min, room temperature
  IC50: 0.0214 µM
[2]
  IC50: < 0.1 µM

## Cn1cnc(C(=O)N(Cc2ccc(F)c(-c3cccc(OC(F)(F)F)c3)c2)C2CCOCC2)n1 [Compound 87]
[1]
  membrane permeability coefficient Pe compared with metoprolol: higher Pe values than the high permeability marker compound metoprolol
[2]; 15 min, room temperature
  IC50: 0.0054 µM
[2]
  IC50: < 0.1 µM

## Cn1cnc(C(=O)N(Cc2ccc(F)c(-c3ccc(OC(F)(F)F)cc3)c2)C2CCOCC2)n1 [Compound 89]
[1]
  membrane permeability coefficient Pe compared with metoprolol: higher Pe values than the high permeability marker compound metoprolol
[2]; 15 min, room temperature
  IC50: 0.0224 µM
[2]
  IC50: < 0.1 µM

## CCOc1cccc(-c2cc(CN(C(=O)c3ncn(C)n3)C3CCOCC3)ccc2F)c1 [Compound 91]
[1]
  membrane permeability coefficient Pe compared with metoprolol: higher Pe values than the high permeability marker compound metoprolol
[2]; 15 min, room temperature
  IC50: 0.0289 µM
[2]
  IC50: < 0.1 µM

## Cn1cnc(C(=O)N(Cc2ccc(F)c(-c3cccc(C(F)(F)F)c3)c2)C2CCOCC2)n1 [Compound 95]
[1]
  membrane permeability coefficient Pe compared with metoprolol: higher Pe values than the high permeability marker compound metoprolol
[2]; 15 min, room temperature
  IC50: 0.0181 µM
[2]
  IC50: < 0.1 µM

## Cn1cnc(C(=O)N(Cc2ccc(F)c(-c3cccc(Oc4ccccc4)c3)c2)C2CCOCC2)n1 [Compound 96]
[1]
  membrane permeability coefficient Pe compared with metoprolol: higher Pe values than the high permeability marker compound metoprolol
[2]
  IC50: < 0.1 µM

## Cn1cnc(C(=O)N(Cc2ccc(F)c(-c3cccc(CCO)c3)c2)C2CCOCC2)c1 [Compound 99]
[1]
  membrane permeability coefficient Pe compared with metoprolol: higher Pe values than the high permeability marker compound metoprolol
[2]; 15 min, room temperature
  IC50: 0.009 µM
[2]
  IC50: < 0.1 µM

## Cn1cnc(C(=O)N(Cc2ccc(F)c(-c3ccc(OC(F)(F)F)cc3)c2)C2CCOCC2)c1 [Compound 100]
[1]
  membrane permeability coefficient Pe compared with metoprolol: higher Pe values than the high permeability marker compound metoprolol
[2]; 15 min, room temperature
  IC50: 0.006 µM
[2]
  IC50: < 0.1 µM

## Cn1cnc(C(=O)N(Cc2ccc(F)c(-c3ccc(F)cc3)c2)C2CCOCC2)c1 [Compound 103]
[1]
  membrane permeability coefficient Pe compared with metoprolol: higher Pe values than the high permeability marker compound metoprolol
[2]; 15 min, room temperature
  IC50: 0.0082 µM
[2]
  IC50: < 0.1 µM

## Cn1cnc(C(=O)N(C2CCOCC2)C(CO)Cc2cccc(OC(F)(F)F)c2)c1 (stereo not drawn) [Compound 109]
[1]
  membrane permeability coefficient Pe compared with metoprolol: higher Pe values than the high permeability marker compound metoprolol
[2]; 15 min, room temperature
  IC50: 0.0317 µM
[2]
  IC50: < 0.1 µM
